Results on nine molecules are retold here after PMC12692795, “Design and Synthesis of Structurally Modified Analogs of 24Z-Isomasticadienonic Acid with Enhanced Anti-Proliferative Activity” (Molecules, 2025).

SMILES strings stand for the structures. Where two headings read alike, the source gives them in different places. Some results are limits rather than exact numbers.

Data set [1] has as its system Z-138 (non-Hodgkin's lymphoma). As to the kind of experiment: Antitumoral assay (MTS, 72 h), Z-138. Conditions: Homo sapiens, Z-138, 72 h, read-out: Cytotoxicity IC50, Z138.
Protocol: (§1) Human cancer cell lines used in this study included Capan-1, HCT-116, NCI-H460, LN-229, HL-60, K-562, and Z-138, all obtained from the American Type Culture Collection (ATCC). The DND-41 cell line was sourced from the Deutsche Sammlung von Mikroorganismen und Zellkulturen (DSMZ). All cell lines were cultured in media obtained from Gibco Life Technologies, supplemented with 10% fetal bovine serum (HyClone, Logan, UT, USA). […] After overnight incubation to allow cell attachment, cells were treated with a seven-point serial dilution of test compounds, ranging from 100 µM to 0.006 µM. Suspension cell lines were seeded as follows: HL-60, K-562, and Z-138 at 2500 cells/well, and DND-41 at 5500 cells/well, using the same compound concentration range. All treatments were performed in 384-well plates under identical conditions. Following 72 h of compound exposure, cell viability was assessed using the CellTiter 96® AQueous One Solution Cell Proliferation Assay (MTS, Promega, Leiden, The Netherlands), following the manufacturer’s protocol. The final assay mixture contained 333 µg/mL MTS and 25 µM phenazine methosulfate (PMS). Absorbance was measured at 490 nm using a SpectraMax Plus 384 microplate reader (Molecular Devices, San Jose, CA, USA). Optical density values were used to calculate the half-maximal inhibitory concentration (IC50) for each compound. All compounds were tested in a minimum of two independent biological replicates to ensure reproducibility.
Data set [2] relates to K-562 (chronic myeloid leukemia). As to the kind of experiment: Antitumoral assay (MTS, 72 h), K-562. The conditions noted are these: Homo sapiens, K562, 72 h, read-out: Cytotoxicity IC50, K562.
Protocol: as §1
For data set [3], the system named is HCT-116 (colorectal carcinoma). As to the kind of experiment: Antitumoral assay (MTS, 72 h), HCT-116. The conditions noted are these: Homo sapiens, HCT-116, 72 h, read-out: Cytotoxicity IC50, HCT-116.
Protocol: (§2) Human cancer cell lines used in this study included Capan-1, HCT-116, NCI-H460, LN-229, HL-60, K-562, and Z-138, all obtained from the American Type Culture Collection (ATCC). The DND-41 cell line was sourced from the Deutsche Sammlung von Mikroorganismen und Zellkulturen (DSMZ). All cell lines were cultured in media obtained from Gibco Life Technologies, supplemented with 10% fetal bovine serum (HyClone, Logan, UT, USA). Adherent cell lines were seeded in 384-well tissue culture plates at the following densities: Capan-1 at 500 cells/well, and HCT-116, NCI-H460, and LN-229 at 1500 cells/well. After overnight incubation to allow cell attachment, cells were treated with a seven-point serial dilution of test compounds, ranging from 100 µM to 0.006 µM. Suspension cell lines were seeded as follows: HL-60, K-562, and Z-138 at 2500 cells/well, and DND-41 at 5500 cells/well, using the same compound concentration range. All treatments were performed in 384-well plates under identical conditions. Following 72 h of compound exposure, cell viability was assessed using the CellTiter 96® AQueous One Solution Cell Proliferation Assay (MTS, Promega, Leiden, The Netherlands), following the manufacturer’s protocol. The final assay mixture contained 333 µg/mL MTS and 25 µM phenazine methosulfate (PMS). Absorbance was measured at 490 nm using a SpectraMax Plus 384 microplate reader (Molecular Devices, San Jose, CA, USA). Optical density values were used to calculate the half-maximal inhibitory concentration (IC50) for each compound. All compounds were tested in a minimum of two independent biological replicates to ensure reproducibility.
Data set [4] has as its system HL-60 (acute myeloid leukemia). As to the kind of experiment: Antitumoral assay (MTS, 72 h), HL-60. The conditions noted are these: Homo sapiens, HL-60, 72 h, read-out: Cytotoxicity IC50, HL-60.
Protocol: as §1
Data set [5] has as its system DND-41 (acute lymphoblastic leukemia). The data set is described as follows: Antitumoral assay (MTS, 72 h), DND-41. The conditions noted are these: Homo sapiens, DND41, 72 h, read-out: Cytotoxicity IC50, DND-41.
Protocol: as §1
The next data set relates to LN-229 (glioblastoma). The data set is described as follows: Antitumoral assay (MTS, 72 h), LN-229. Conditions: Homo sapiens, LN-229, 72 h, read-out: Cytotoxicity IC50, LN229.
For data set [6], the system named is panel of human cancer cell lines (Capan-1, HCT-116, LN-229, NCI-H460, DND-41, HL-60, K-562, Z-138).
Protocol: as §2
Data set [7] has as its system Capan-1 (pancreatic adenocarcinoma). As to the kind of experiment: Antitumoral assay (MTS, 72 h), Capan-1. Conditions: Homo sapiens, CAPAN-1, 72 h, read-out: Cytotoxicity IC50, Capan-1.
Protocol: as §2
Data set [8] deals with NCI-H460 (lung carcinoma). As to the kind of experiment: Antitumoral assay (MTS, 72 h), NCI-H460. The conditions noted are these: Homo sapiens, NCI-H460, 72 h, read-out: Cytotoxicity IC50, NCl-H460.
Protocol: as §2
Data set [9] relates to panel of human cancer cell lines (Capan-1, HCT-116, LN-229, NCI-H460, DND-41, HL-60, K-562, Z-138). The data set is described as follows: Antitumoral evaluation across the panel of solid and hematological cancer cell lines. The conditions noted are these: 8 cancer cell lines, 72 h, MTS.
Protocol: as §2
Data set [10] relates to peripheral blood mononuclear cells (PBMCs). The data set is described as follows: Cell viability of PBMCs (MTS, 72 h). The class given is cell-based, Human. The conditions noted are these: 72 h exposure, duplicate. On the procedure: A buffy coat preparation sourced from a healthy donor was acquired from the Blood Transfusion Center in Leuven, Belgium. Peripheral blood mononuclear cells (PBMCs) were separated using density gradient centrifugation over Lymphoprep (density: 1.077 g/mL) from Nycomed. These cells were then cultured in cell culture medium (RPMI, Gibco, Waltham, MA, USA) supplemented with 10% FBS. The PBMCs were seeded at a density of 28,000 cells per well in 384-well tissue culture plates containing the test compounds at concentrations ranging from 50 µM to 3.2 nM (for compounds 3–11 and IMNA) and from 10 µM to 0.6 nM (for etoposide). Following a 72 h incubation period, cell viability was assessed using the MTS cell viability assay. Each compound was evaluated in duplicate.

Protocol for LN-229 (glioblastoma): as §2

Turning to `C/C(=C/CC[C@H](C)[C@@H]1CC[C@]2(C)C3=C(CC[C@@]12C)[C@@]1(C)CC(Br)C(=O)C(C)(C)C1CC3)C(=O)O` (mixture of isomers) [Compound 4, 2-Bromo-3-oxotirucalla-8,24Z-dien-26-oic Acid], the IC50 in data set [1] was above 50 µM; in [2], above 50 µM; in [3] it was 22 ± 0.8 µM; in [4], 14.7 ± 3.3 µM; in data set [5], 20.5 ± 3.9 µM; in the data set with LN-229 (glioblastoma), 28.5 ± 5.3 µM. Moreover, the IC50 in data set [7] is 9.4 ± 1.5 µM; in data set [8], 25.1 ± 1.9 µM. In addition, in data set [6], the “Cytotoxic / antiproliferative profile across the cancer cell line panel (in words)” value is on record as “intermediate activity across multiple cell lines”.

Take `C/C(=C/CC[C@H](C)[C@@H]1CC[C@]2(C)C3=C(CC[C@@]12C)[C@@]1(C)CC(SC#N)C(=O)C(C)(C)C1CC3)C(=O)O` (mixture of isomers) [Compound 6, 2-Thiocyanate-3-oxotirucalla-8,24Z-dien-26-oic Acid]: the IC50 in data set [1] was found to be 17.9 ± 0.4 µM; in data set [2], 35 ± 3.9 µM; in data set [3], 24.3 ± 1.4 µM; in data set [4] it was 15 ± 1.2 µM; in [5], 18.5 ± 0.7 µM; in the data set on LN-229 (glioblastoma), 23.3 ± 2.9 µM. The IC50 in data set [7] was 7.4 ± 1 µM; in [8] it was 21.3 ± 2.3 µM. Further, the “Cytotoxic / antiproliferative profile across the cancer cell line panel (in words)” value in data set [6] is recorded as “broader antiproliferative activity”.

For the molecule `C/C(=C/CC[C@H](C)[C@@H]1CC[C@]2(C)C3=C(CC[C@@]12C)[C@@]1(C)Cc2cnoc2C(C)(C)[C@@H]1CC3)C(=O)O` [Compound 3, (S,Z)-2-Methyl-6-((1S,3aS,5aR,10aS,12aS)-3a,6,6,10a,12a-pentamethyl-2,3,3a,4,5,5a,6,10,10a,11,12,12a-dodecahydro-1H-cyclopenta[7,8]phenanthro[3,2-d]isoxazol-1-yl)hept-2-enoic Acid], the IC50 (in [1]; in data set [2]; in data set [3]; in data set [4]; in data set [5]; in the data set on LN-229 (glioblastoma)) was above 50 µM throughout. Moreover, the results for the IC50 in data set [7] and in data set [8] were 6.7 ± 0.4 µM and above 50 µM, respectively. Further, the “Cytotoxic / antiproliferative profile across the cancer cell line panel (in words)” value in [6] is given as “selective cytotoxicity toward Capan-1”.

Regarding `C/C(=C/CC[C@H](C)[C@@H]1CC[C@]2(C)C3=C(CC[C@@]12C)[C@@]1(C)Cc2sc(N)nc2C(C)(C)[C@@H]1CC3)C(=O)O` [Compound 5, (S,Z)-6-((1S,3aS,5aR,10aS,12aS)-8-Amino-3a,6,6,10a,12a-pentamethyl-2,3,3a,4,5,5a,6,10,10a,11,12,12a-dodecahydro-1H-cyclopenta[7,8]phenanthro[2,3-d]thiazol-1-yl)-2-methylhept-2-enoic Acid], the IC50 in data set [1] is 25 ± 1.4 µM; in [2] it was above 50 µM; in [3] it was 28.2 ± 1.9 µM; in [4], 19.5 ± 3.2 µM; in [5], 19 ± 2 µM; in the data set with LN-229 (glioblastoma), 27.9 ± 2.9 µM. Further, the figures for the IC50 in data set [7] and in [8] were 23.5 ± 2.4 µM and 24.5 ± 7.2 µM, respectively. In addition, the “Cytotoxic / antiproliferative profile across the cancer cell line panel (in words)” value in data set [6] is “intermediate activity across multiple cell lines”.

In the case of `C/C(=C/CC[C@H](C)[C@@H]1CC[C@]2(C)C3=C(CC[C@@]12C)[C@@]1(C)Cc2sc(N4CCOCC4)nc2C(C)(C)[C@@H]1CC3)C(=O)O` [Compound 7, (S,Z)-2-Methyl-6-((1S,3aS,5aR,10aS,12aS)-3a,6,6,10a,12a-pentamethyl-8-morpholino-2,3,3a,4,5,5a,6,10,10a,11,12,12a-dodecahydro-1H-cyclopenta[7,8]phenanthro[2,3-d]thiazol-1-yl)hept-2-enoic Acid], the IC50 (in data set [1]; in [2]; in [3]; in data set [4]; in data set [5]; in the data set on LN-229 (glioblastoma)) was above 50 µM throughout. Further, the figures for the IC50 in data set [7] and in data set [8] were 26 ± 0.4 µM and above 50 µM, respectively. Moreover, the “Cytotoxic / antiproliferative profile across the cancer cell line panel (in words)” value in [6] is “selective cytotoxicity toward Capan-1”.

Regarding `C/C(=C/CC[C@H](C)[C@@H]1CC[C@]2(C)C3=C(CC[C@@]12C)[C@]1(C)C(CC3)C(C)(C)C(=O)O[C@@H]1O)C(=O)O` (stereo partly drawn) [Compound 9, 1α-hydroxy-3-oxa-nor-tirucalla-8,24Z-dien-26-oic acid], the IC50 (in data set [1]; in data set [2]; in [3]; in data set [4]; in data set [5]; with LN-229 (glioblastoma)) was above 50 µM each time. Further, the IC50 in data set [7] is 39.4 ± 1.5 µM; in data set [8], above 50 µM. Besides, the “Cytotoxic / antiproliferative profile across the cancer cell line panel (in words)” value in data set [9] is “selective cytotoxicity toward Capan-1”.

As for `C/C(=C/CC[C@H](C)[C@@H]1CC[C@]2(C)C3=C(CC[C@@]12C)[C@@]1(C)CC(=O)C(C)(C)C1CC3)C(=O)O` (some centres unmarked) [Compound 11, 3-One-1(2→3)-abeotirucalla-8,24Z-dien-26-oic Acid], the IC50 is above 50 µM in data set [1]; above 50 µM in [2]; above 50 µM in data set [3]; 29.6 ± 8.9 µM in data set [4]; 49.3 ± 0.8 µM in data set [5]; above 50 µM in the data set on LN-229 (glioblastoma). Also, the IC50 in data set [7] is 24.6 ± 2.1 µM; in data set [8] it was above 50 µM. Also, the “Cytotoxic / antiproliferative profile across the cancer cell line panel (in words)” value in data set [9] is “more limited and restricted cytotoxic profile”.

As for `COc1cc([C@@H]2c3cc4c(cc3[C@@H](O[C@@H]3O[C@@H]5CO[C@@H](C)O[C@H]5[C@H](O)[C@H]3O)[C@H]3COC(=O)[C@H]23)OCO4)cc(OC)c1O` [Etoposide, reference compound], the “Toxicity to normal PBMCs” value in [10] (10 µM) is listed as “did not display toxicity”. In addition, the IC50 in data set [1] came out at 0.08 ± 0.007 µM; in data set [2], 4.47 ± 0.11 µM; in data set [3] it was 1.09 ± 0.19 µM; in data set [4] it was 0.3 ± 0.12 µM; in data set [5], 0.08 ± 0.03 µM; in the data set with LN-229 (glioblastoma), 4.8 ± 0.87 µM. Further, the results for the IC50 in data set [7] and in data set [8] were 0.24 ± 0.01 µM and 2.36 ± 0.7 µM, respectively. Further, the “Cytotoxic / antiproliferative profile across the cancer cell line panel (in words)” value in data set [9] is listed as “potent antiproliferative activity against all cancer cell lines”.

As for `C/C(=C/CC[C@H](C)[C@@H]1CC[C@]2(C)C3=C(CC[C@@]12C)[C@@]1(C)CCC(=O)C(C)(C)C1CC3)C(=O)O` (some centres unmarked) [IMNA, 24Z-isomasticadienonic acid], the “Effect on viability of normal PBMCs” value in data set [10] (50 µM) was “none of the analogues (compounds 3–11 and IMNA) decreased the viability”. Moreover, the IC50 in data set [1] was 32.7 ± 3.2 µM; in data set [2], above 50 µM; in data set [3], 42.3 ± 2.3 µM; in data set [4], 21.7 ± 3.1 µM; in data set [5], 34.2 ± 2.5 µM; in the data set on LN-229 (glioblastoma), above 50 µM. For the same molecule, the IC50 in data set [7] is 26.5 ± 1.6 µM; in [8], above 50 µM. Besides, in data set [9], the “Cytotoxic / antiproliferative profile across the cancer cell line panel (in words)” value was “intermediate activity across multiple cell lines”.
